pIC50: −log10 of the molar value. Non-standard residues stand in square brackets, D forms with d. Residues, ends and D or L forms follow the SMILES beside them. Ahx = NCCCCCC(=O)O
Key:
[1] = biological target: T1, Mitogen-activated protein kinase 10 (Homo sapiens, UniProt P53779); test: Inhibition of JNK3 (unknown origin) using biotinylated FL-ATF-2 as substrate incubated for 15 mins by HTRF assay
[2] = biological target: T2, Mitogen-activated protein kinase 8 (Homo sapiens, UniProt P45983); test: Inhibition of JNK1 (unknown origin) using biotinylated FL-ATF-2 as substrate incubated for 15 mins by HTRF assay
[3] = biological target: T3, c-Jun N-terminal kinase, JNK (Homo sapiens, UniProt P45983+P53779+P45984); test: Inhibition of c-Jun phosphorylation in human A-375 cells; assay type: cell-based
[4] = biological target: T3, c-Jun N-terminal kinase, JNK; test: Inhibition of c-Jun phosphorylation in human HeLa cells; assay type: cell-based
[5] = biological target: T1, Mitogen-activated protein kinase 10; test: Inhibition of JNK3 (unknown origin) irradiated with 400 nm light
[6] = biological target: T1, Mitogen-activated protein kinase 10; test: Inhibition of JNK3 (unknown origin) in dark
[7] = biological target: T2, Mitogen-activated protein kinase 8; test: Inhibition of JNK1 (unknown origin)
[8] = biological target: T1, Mitogen-activated protein kinase 10; test: Inhibition of JNK3 (unknown origin)
[9] = biological target: Mitogen-activated protein kinase 14 (Homo sapiens, UniProt Q16539); test: Inhibition of p38alpha (unknown origin)
[10] = biological target: Leucine-rich repeat serine/threonine-protein kinase 2 (Homo sapiens, UniProt Q5S007); test: Inhibition of LRRK2 (unknown origin)
[11] = biological target: T2, Mitogen-activated protein kinase 8; test: Inhibition of JNK1 (unknown origin) incubated for 1 hr by TR-FRET assay
[12] = biological target: T1, Mitogen-activated protein kinase 10; test: Inhibition of JNK3 (unknown origin) using GST-c-jun (1-221) as substrate by scintillation counter analysis
[13] = biological target: T2, Mitogen-activated protein kinase 8; test: Inhibition of JNK1 (unknown origin) using GST-c-jun (1-221) as substrate by scintillation counter analysis
[14] = biological target: Mitogen-activated protein kinase 9 (Homo sapiens, UniProt P45984); test: Inhibition of JNK2 (unknown origin) using GST-c-jun (1-221) as substrate by scintillation counter analysis
[15] = Inhibition of transformation of H-RAS induced mouse JB6 C1 41 cells at 5 uM; assay type: functional, JB6 Cl 41-5a; set-up: scale not given: the % may be the effect or the level left
[16] = biological target: Mitogen-activated protein kinase 8 (Mus musculus, UniProt Q91Y86); test: Inhibition of JNK1 in mouse JB6 C1 41 cell lysate incubated for 1 hr relative to control; assay type: subcellular, JB6 Cl 41-5a
[17] = Antitumor activity against UVB-induced skin cancer SKH-1 mouse model assessed as reduction in tumor growth at 20 nmol, top relative to control; assay type: functional, Tumor cell line; set-up: scale not given: the % may be the effect or the level left
[18] = Antitumor activity against UVB-induced skin cancer SKH-1 mouse model assessed as reduction in tumor growth at 4 nmol, top relative to control; assay type: functional, Tumor cell line; set-up: scale not given: the % may be the effect or the level left

T2 sequence (P45983 whole entry): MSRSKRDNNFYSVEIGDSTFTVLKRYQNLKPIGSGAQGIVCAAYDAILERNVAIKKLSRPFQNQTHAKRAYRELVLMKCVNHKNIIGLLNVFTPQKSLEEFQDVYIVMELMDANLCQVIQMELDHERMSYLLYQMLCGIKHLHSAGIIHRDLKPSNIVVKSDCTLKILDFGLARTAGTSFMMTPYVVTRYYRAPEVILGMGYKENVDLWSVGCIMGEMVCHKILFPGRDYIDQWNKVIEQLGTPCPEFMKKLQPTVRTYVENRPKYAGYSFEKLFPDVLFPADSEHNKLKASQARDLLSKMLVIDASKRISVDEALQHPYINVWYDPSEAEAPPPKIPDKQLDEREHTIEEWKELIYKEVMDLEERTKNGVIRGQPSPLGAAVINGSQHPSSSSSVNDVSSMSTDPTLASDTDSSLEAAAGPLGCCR
T1 sequence (P53779 whole entry): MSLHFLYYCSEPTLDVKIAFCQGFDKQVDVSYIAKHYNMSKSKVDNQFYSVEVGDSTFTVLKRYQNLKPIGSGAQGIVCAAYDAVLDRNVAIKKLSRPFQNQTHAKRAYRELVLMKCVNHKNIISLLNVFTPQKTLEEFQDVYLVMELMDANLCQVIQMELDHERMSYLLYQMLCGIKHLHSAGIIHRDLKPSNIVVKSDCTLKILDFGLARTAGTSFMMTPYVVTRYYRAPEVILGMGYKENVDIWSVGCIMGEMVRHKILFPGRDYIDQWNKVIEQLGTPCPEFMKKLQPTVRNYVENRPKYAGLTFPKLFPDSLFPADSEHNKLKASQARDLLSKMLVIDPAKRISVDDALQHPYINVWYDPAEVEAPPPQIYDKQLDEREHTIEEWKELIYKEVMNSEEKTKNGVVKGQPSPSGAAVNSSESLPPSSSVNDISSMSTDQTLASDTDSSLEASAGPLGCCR
Sequence of Mitogen-activated protein kinase 14 (Q16539 whole entry): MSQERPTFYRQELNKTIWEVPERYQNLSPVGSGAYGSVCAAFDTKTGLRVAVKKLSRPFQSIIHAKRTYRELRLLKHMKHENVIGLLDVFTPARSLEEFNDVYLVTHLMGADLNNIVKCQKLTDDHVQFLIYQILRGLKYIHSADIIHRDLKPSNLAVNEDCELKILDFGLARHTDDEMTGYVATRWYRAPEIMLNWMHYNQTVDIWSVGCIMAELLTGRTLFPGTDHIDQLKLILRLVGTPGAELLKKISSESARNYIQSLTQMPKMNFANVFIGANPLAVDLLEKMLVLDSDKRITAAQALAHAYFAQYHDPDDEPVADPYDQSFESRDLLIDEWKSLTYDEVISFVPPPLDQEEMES
Sequence of Mitogen-activated protein kinase 9 (P45984 whole entry): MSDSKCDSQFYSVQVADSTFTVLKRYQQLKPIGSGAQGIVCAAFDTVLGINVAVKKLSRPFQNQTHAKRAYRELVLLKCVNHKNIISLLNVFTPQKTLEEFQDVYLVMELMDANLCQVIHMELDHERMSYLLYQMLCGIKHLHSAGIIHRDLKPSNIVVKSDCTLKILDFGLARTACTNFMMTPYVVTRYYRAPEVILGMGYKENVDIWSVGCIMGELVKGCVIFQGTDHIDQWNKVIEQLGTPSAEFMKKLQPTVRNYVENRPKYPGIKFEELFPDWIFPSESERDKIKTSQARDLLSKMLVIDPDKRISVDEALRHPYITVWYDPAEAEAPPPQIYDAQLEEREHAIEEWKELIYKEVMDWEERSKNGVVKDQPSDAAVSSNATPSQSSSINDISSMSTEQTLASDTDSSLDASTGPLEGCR
Sequence of Leucine-rich repeat serine/threonine-protein kinase 2 (Q5S007 whole entry): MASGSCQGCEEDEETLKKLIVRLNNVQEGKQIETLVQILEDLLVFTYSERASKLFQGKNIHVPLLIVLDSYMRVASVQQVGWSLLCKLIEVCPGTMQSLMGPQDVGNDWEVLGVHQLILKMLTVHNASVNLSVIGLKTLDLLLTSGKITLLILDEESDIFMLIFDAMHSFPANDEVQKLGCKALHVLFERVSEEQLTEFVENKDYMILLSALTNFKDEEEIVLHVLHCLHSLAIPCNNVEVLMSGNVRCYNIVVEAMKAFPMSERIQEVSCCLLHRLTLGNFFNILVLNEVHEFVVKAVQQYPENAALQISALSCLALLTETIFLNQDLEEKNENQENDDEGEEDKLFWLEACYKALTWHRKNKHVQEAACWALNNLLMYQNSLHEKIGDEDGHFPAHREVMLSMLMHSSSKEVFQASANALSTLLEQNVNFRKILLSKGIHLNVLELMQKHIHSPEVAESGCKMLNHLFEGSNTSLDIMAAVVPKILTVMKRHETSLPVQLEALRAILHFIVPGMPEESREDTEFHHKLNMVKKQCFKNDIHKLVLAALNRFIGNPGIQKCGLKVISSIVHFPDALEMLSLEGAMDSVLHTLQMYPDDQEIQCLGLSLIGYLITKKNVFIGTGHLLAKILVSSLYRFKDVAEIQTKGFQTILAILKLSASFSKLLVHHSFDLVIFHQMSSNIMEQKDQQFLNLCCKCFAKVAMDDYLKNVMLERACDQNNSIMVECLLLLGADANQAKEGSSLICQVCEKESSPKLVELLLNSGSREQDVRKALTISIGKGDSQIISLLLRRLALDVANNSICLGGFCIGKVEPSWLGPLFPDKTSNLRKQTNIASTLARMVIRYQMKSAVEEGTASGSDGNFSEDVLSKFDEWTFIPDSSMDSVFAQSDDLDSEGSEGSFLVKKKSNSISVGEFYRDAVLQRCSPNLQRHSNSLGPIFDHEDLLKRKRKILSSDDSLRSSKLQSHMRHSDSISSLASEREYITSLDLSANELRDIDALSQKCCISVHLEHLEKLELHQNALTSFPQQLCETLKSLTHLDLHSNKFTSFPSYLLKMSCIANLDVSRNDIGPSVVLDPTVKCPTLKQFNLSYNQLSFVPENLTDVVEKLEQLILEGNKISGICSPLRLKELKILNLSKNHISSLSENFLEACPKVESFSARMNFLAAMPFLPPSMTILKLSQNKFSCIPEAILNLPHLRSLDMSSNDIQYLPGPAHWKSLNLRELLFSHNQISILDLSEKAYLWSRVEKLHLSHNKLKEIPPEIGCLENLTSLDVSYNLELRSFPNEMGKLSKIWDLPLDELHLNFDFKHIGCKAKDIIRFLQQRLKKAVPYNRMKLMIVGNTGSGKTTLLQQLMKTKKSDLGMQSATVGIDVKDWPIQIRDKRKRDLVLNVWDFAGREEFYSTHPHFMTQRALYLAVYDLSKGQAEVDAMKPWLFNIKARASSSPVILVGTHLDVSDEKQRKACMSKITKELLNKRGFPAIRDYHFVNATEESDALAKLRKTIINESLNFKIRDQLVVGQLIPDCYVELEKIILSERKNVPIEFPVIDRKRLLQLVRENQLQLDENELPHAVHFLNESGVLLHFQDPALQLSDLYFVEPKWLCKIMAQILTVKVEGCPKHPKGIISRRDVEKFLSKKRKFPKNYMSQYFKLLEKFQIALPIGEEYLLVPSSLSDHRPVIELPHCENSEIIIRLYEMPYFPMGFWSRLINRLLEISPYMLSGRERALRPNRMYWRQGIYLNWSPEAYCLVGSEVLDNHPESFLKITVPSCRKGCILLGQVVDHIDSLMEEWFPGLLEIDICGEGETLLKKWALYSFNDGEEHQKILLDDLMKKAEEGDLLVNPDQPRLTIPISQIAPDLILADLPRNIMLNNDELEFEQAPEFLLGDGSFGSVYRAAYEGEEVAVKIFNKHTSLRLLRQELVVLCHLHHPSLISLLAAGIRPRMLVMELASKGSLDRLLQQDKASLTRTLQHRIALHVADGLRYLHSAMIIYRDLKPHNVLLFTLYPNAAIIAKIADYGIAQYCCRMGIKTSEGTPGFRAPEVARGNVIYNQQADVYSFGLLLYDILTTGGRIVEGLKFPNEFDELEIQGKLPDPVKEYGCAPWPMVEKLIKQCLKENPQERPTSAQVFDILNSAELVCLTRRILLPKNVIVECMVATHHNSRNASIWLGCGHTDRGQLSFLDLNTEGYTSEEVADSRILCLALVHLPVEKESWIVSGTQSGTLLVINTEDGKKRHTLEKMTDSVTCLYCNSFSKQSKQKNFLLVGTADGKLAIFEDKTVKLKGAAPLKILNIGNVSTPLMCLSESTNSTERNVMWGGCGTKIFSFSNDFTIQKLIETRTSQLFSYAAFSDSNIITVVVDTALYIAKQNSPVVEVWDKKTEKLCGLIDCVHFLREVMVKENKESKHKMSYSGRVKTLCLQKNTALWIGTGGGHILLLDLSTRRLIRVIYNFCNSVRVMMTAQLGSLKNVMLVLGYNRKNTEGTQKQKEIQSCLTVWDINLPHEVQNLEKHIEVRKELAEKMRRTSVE
Sequence of Mitogen-activated protein kinase 8 (Mus musculus, UniProt Q91Y86) (Q91Y86 whole entry): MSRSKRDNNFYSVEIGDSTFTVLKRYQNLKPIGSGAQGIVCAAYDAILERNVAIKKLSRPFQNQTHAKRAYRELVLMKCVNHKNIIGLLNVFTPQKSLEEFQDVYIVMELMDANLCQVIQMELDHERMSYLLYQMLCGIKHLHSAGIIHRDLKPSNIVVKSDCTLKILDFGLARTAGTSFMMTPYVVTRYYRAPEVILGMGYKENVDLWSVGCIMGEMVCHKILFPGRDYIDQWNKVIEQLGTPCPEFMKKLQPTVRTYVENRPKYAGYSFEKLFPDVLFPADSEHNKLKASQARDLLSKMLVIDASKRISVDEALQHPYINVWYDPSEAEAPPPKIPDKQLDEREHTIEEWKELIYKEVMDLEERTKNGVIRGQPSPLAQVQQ

Cc1ccc(NC(=O)c2cccc(-n3cc(NC(=O)Nc4ccccc4Cl)cn3)c2)cn1 showed a pIC50 [1] of 7.26 and a pIC50 [2] of 5.85.
In the case of CN(C)C/C=C/C(=O)Nc1cccc(C(=O)Nc2ccc(Nc3nccc(-c4c(-c5ccccc5)nn5ccccc45)n3)cc2)c1, the EC50 [3] was 8.6 nM and the EC50 [4] was 48 nM.
For O=[N+]([O-])c1cnc(Sc2nnc(O)n2-c2ccc3c(c2)OCCO3)s1, the pIC50 [5] was 7.50 and the pIC50 [6] was 6.29.
O=c1c(O)c(-c2cc(O)c(O)c(CO)c2)oc2cc(O)c(O)c(O)c12 showed a pIC50 [7] of 4.91.
Molecule O=C(CSc1c(-c2ccccc2)c2cc(Cl)ccc2[nH]c1=O)NC1CCCC1 has a pIC50 [8] of 7.24.
Work on C=CC(=O)Nc1cccc(C(=O)Nc2ccc(Nc3cc(-c4c(C)nc(SC)n4C)ccn3)cc2)c1 yielded a pIC50 [8] of 5.70 and a pIC50 [9] of 5.71.
For CC(C)CN(CC(=O)NCCCCCCNC(=O)c1ccc(-c2n[nH]c3ccccc23)cc1)C(=O)CNC(=O)C1COc2ccccc2C1 (stereo unspecified), the pIC50 [8] was 7.00 and the pIC50 [10] was 7.92.
For CSc1nc(C)c(-c2ccnc(Nc3ccc(N4CCOCC4)cc3)c2)[nH]1, the pIC50 [8] was 6.74 and the pIC50 [9] was < 5.00.
Molecule O=c1c(O)c(-c2cc(O)c(O)c(O)c2)oc2cc(O)c(O)c(O)c12 has a pIC50 [7] of 5.47.
COCCNc1nnc(Sc2ncc([N+](=O)[O-])s2)s1 showed a pIC50 [11] of 6.55.
In the case of CC[C@H](C)[C@H](NC(=O)[C@@H]1CCCN1)C(=O)N[C@@H](CS)C(=O)N[C@@H](CCCNC(=N)N)C(=O)N1CCC[C@H]1C(=O)N[C@H](C(=O)N[C@H](C(=O)N[C@@H](CC(C)C)C(=O)N[C@@H](CC(N)=O)C(=O)N[C@@H](CC(C)C)C(=O)N[C@@H](Cc1ccccc1)C(=O)NCCCCCC(=O)N[C@@H](CCCNC(=N)N)C(=O)N[C@@H](CCCNC(=N)N)C(=O)N[C@@H](C)C(=O)N[C@@H](CCCNC(=N)N)C(=O)N[C@@H](CCCNC(=N)N)C(=O)N[C@@H](C)C(=O)N[C@@H](CCCNC(=N)N)C(=O)N[C@@H](CCCNC(=N)N)C(=O)N[C@@H](CCCNC(=N)N)C(=O)O)[C@@H](C)O)[C@@H](C)O (H-PICRPTTLNLF[Ahx]RRARRARRR-OH), the pIC50 [12] was 5.92, the pIC50 [13] was 5.96 and the pIC50 [14] was 7.05.
In the case of O=c1c(O)c(-c2ccc(O)c(O)c2)oc2cc(O)c(O)c(O)c12 [QUERCETAGETIN], the Activity [15] was 73%, the pIC50 [16] was 5.34 and the Activity [17] was 46.7%. It also gave an Activity [18] of 32%.
In the case of H-PKRPTTLNLFRRRQRRKKRG-OH, the pIC50 [12] was 5.92, the pIC50 [13] was 5.94 and the pIC50 [14] was 7.04.
